Test results reported in ChEMBL document CHEMBL1201862, “PubChem BioAssay data set” (2004).
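Protocol summary: plate cells (96-well), add compound at 5 concentrations, incubate 48 h, interpolate endpoints linearly. GI50: concentration for 50% inhibition of growth.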 Activity calls are given as the source filed them. Cut-off read from the data, not from the text of the source: active = GI50 up to about 1.1 µM and inactive = higher.

Tests used:
Assay in all cases: NCI anticancer screen, dose series, 48 h
786-0 = tested on: 786-0
A498 = tested on: A498
A549 = tested on: A549
ACHN = tested on: ACHN
BT-549 = tested on: BT-549
CAKI-1 = tested on: CAKI-1
CCRF-CEM = tested on: CCRF-CEM
COLO 205 = tested on: COLO 205
DU-145 = tested on: DU-145
EKVX = tested on: EKVX
HCC 2998 = tested on: HCC 2998
HCT-116 = tested on: HCT-116
HCT-15 = tested on: HCT-15
HOP-62 = tested on: HOP-62
HOP-92 = tested on: HOP-92
HT-29 = tested on: HT-29
Hs-578T = tested on: Hs-578T
IGROV-1 = tested on: IGROV-1
K562 = tested on: K562
KM12 = tested on: KM12
M14 = tested on: M14
MCF7 = tested on: MCF7
MDA-MB-231 = tested on: MDA-MB-231
MDA-MB-435 = tested on: MDA-MB-435
MOLT-4 = tested on: MOLT-4
NCI-H226 = tested on: NCI-H226
NCI-H23 = tested on: NCI-H23
NCI-H522 = tested on: NCI-H522
NCI/ADR-RES = tested on: NCI/ADR-RES
OVCAR-3 = tested on: OVCAR-3
OVCAR-4 = tested on: OVCAR-4
OVCAR-5 = tested on: OVCAR-5
OVCAR-8 = tested on: OVCAR-8
PC-3 = tested on: PC-3
RPMI-8226 = tested on: RPMI-8226
RXF 393 = tested on: RXF 393
SF-268 = tested on: SF-268
SF-295 = tested on: SF-295
SF-539 = tested on: SF-539
SK-MEL-28 = tested on: SK-MEL-28
SK-MEL-2 = tested on: SK-MEL-2
SK-MEL-5 = tested on: SK-MEL-5
SK-OV-3 = tested on: SK-OV-3
SN12C = tested on: SN12C
SNB-19 = tested on: SNB-19
SNB-75 = tested on: SNB-75
SR = tested on: SR
SW-620 = tested on: SW-620
T47D = tested on: T47D
TK-10 = tested on: TK-10
U-251 = tested on: U-251
UACC-257 = tested on: UACC-257
UACC-62 = tested on: UACC-62
UO-31 = tested on: UO-31

In the case of `CC(C)=C1C(=O)C[C@]2(C)C/C=C(\C)CC/C=C(\C)CC[C@@H]12`, the GI50 (786-0) was 8.69 µM (inactive), the GI50 (A498) was 20.8 µM (inactive) and the GI50 (A549) was 14.1 µM (inactive). The GI50 (ACHN) was 9.02 µM (inactive), the GI50 (BT-549) was 10.9 µM (inactive) and the GI50 (CAKI-1) was 7.96 µM (inactive). The GI50 (CCRF-CEM) was 9.23 µM (inactive), the GI50 (COLO 205) was 8.51 µM (inactive) and the GI50 (DU-145) was 16.7 µM (inactive). For the same compound, the GI50 (EKVX) was 11.2 µM (inactive), the GI50 (HCC 2998) was 7.53 µM (inactive) and the GI50 (HCT-116) was 8.32 µM (inactive). For the same compound, the GI50 (HCT-15) was 8.28 µM, the GI50 (HOP-62) was 9.08 µM (inactive) and the GI50 (HOP-92) was 9.53 µM (inactive). For the same compound, the GI50 (HT-29) was 9.08 µM (inactive), the GI50 (Hs-578T) was 11 µM (inactive) and the GI50 (IGROV-1) was 9.4 µM (inactive). The GI50 (K562) was 6.65 µM (inactive), the GI50 (KM12) was 8.67 µM (inactive) and the GI50 (M14) was 7.87 µM (inactive). The GI50 (MCF7) was 11.5 µM (inactive), the GI50 (MDA-MB-231) was 7.89 µM (inactive) and the GI50 (MDA-MB-435) was 9.53 µM (inactive). The GI50 (MOLT-4) was 8.61 µM (inactive), the GI50 (NCI-H226) was 8.69 µM (inactive) and the GI50 (NCI-H23) was 10.2 µM (inactive). The GI50 (NCI-H522) was 6.97 µM (inactive), the GI50 (NCI/ADR-RES) was 7.36 µM (inactive) and the GI50 (OVCAR-3) was 8.53 µM (inactive). For the same compound, the GI50 (OVCAR-4) was 15.3 µM (inactive), the GI50 (OVCAR-5) was 12.1 µM (inactive) and the GI50 (OVCAR-8) was 8.51 µM (inactive). For the same compound, the GI50 (PC-3) was 11.8 µM (inactive), the GI50 (RPMI-8226) was 11.9 µM (inactive) and the GI50 (RXF 393) was 7.29 µM (inactive). The GI50 (SF-268) was 8.93 µM (inactive), the GI50 (SF-295) was 11.3 µM (inactive) and the GI50 (SF-539) was 8.57 µM (inactive). The GI50 (SK-MEL-28) was 8.22 µM (inactive), the GI50 (SK-MEL-2) was 7.85 µM (inactive) and the GI50 (SK-MEL-5) was 8.38 µM (inactive). For the same compound, the GI50 (SK-OV-3) was 18.9 µM (inactive), the GI50 (SN12C) was 9.42 µM (inactive) and the GI50 (SNB-19) was > 50 µM (inactive). For the same compound, the GI50 (SNB-75) was 9.66 µM (inactive), the GI50 (SR) was 9.86 µM (inactive) and the GI50 (SW-620) was 9.31 µM (inactive). The GI50 (T47D) was 14.9 µM (inactive), the GI50 (TK-10) was 9.42 µM (inactive) and the GI50 (U-251) was 7.62 µM (inactive). For the same compound, the GI50 (UACC-257) was 11.1 µM (inactive), the GI50 (UACC-62) was 7.74 µM (inactive) and the GI50 (UO-31) was 7.73 µM (inactive).
